We go through 23 molecules from ChEMBL document CHEMBL2086238, “Identification of ETP-46321, a potent and orally bioavailable PI3K α, δ inhibitor” (Bioorg Med Chem Lett, 2012).

The target in series [1] is PI3-kinase p110-alpha/p85-alpha (Homo sapiens, UniProt P42336). Kind of series: Inhibition of human PI3Kalpha (p110alpha/p85alpha) by ADP accumulation based HTRF assay. The conditions noted are these: for Ki: read-out: Ki(app). The class given is protein-complex assay. A general note: TR-FRET usually uses a lanthanide donor and a delayed reading to cut background.
Series [2] is described as follows: Stability in human liver microsomes at 1 uM incubated for 15 mins. It counts as ADME, Microsome. Particulars: read-out: Stability. A general note: Liver microsomes are a subcellular fraction often used to study metabolism.
In the next series the target is PI3K p110 beta/p85 alpha (Homo sapiens, UniProt P42338). Kind of series: Inhibition of human PI3Kbeta (p110beta/p85alpha) by ADP accumulation based HTRF assay. It counts as protein-complex assay. The conditions noted are these: read-out: Ki(app).
The target in another series is CYP2C9 (Homo sapiens, UniProt P11712). In words: Inhibition of CYP2C9 at 10 uM. The class given is ADME.
Another series concerns the target CYP2C19 (Homo sapiens, UniProt P33261). Kind of series: Inhibition of CYP2C19 at 10 uM. It counts as ADME.
A further series concerns the target CYP3A4 (Homo sapiens, UniProt P08684). In words: Inhibition of CYP3A4 at 10 uM. The class given is ADME.
Series [3] addresses PI3-kinase p110-delta/p85-alpha (Homo sapiens, UniProt O00329). In words: Inhibition of human PI3Kdelta (p110delta/p85alpha) by ADP accumulation based HTRF assay. It counts as protein-complex assay. Particulars: read-out: Ki(app).
For a further series, the target named is T1, CYP1A2 (Homo sapiens, UniProt P05177).
T1 sequence (P05177 whole entry): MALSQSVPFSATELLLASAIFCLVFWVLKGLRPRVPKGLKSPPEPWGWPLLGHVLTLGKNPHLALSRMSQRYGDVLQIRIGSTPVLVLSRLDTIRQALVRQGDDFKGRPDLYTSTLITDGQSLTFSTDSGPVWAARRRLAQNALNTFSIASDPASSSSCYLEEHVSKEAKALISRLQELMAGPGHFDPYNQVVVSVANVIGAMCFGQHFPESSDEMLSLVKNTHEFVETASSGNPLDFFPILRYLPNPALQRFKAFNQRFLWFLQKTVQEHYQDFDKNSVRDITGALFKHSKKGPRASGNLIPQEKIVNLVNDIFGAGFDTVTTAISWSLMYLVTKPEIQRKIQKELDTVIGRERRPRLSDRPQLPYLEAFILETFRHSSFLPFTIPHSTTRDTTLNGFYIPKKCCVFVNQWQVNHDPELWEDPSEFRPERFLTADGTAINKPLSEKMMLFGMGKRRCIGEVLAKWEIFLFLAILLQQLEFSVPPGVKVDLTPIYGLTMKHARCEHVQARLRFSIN
In words: Inhibition of CYP1A2 at 10 uM. The class given is ADME.

Series [4] deals with Phosphatidylinositol 4,5-bisphosphate 3-kinase catalytic subunit alpha isoform (Homo sapiens, UniProt P42336). In words: Inhibition of PI3Kalpha in human U2OS cells assessed as inhibition of AKT Ser 473 phosphorylation by Western blot. The class given is cell-based. A general note: Immunoblotting shows a protein as a band on a membrane.
In another series the target is CYP2D6 (Homo sapiens, UniProt P10635). Kind of series: Inhibition of CYP2D6 at 10 uM. The class given is ADME.
Series [5] addresses Phosphatidylinositol 4,5-bisphosphate 3-kinase catalytic subunit gamma isoform (Homo sapiens, UniProt P48736). In words: Inhibition of human PI3Kgamma by ADP accumulation based HTRF assay. Particulars: read-out: Ki(app).
Series [6] is described as follows: Stability in mouse liver microsomes at 1 uM incubated for 15 mins. It counts as ADME, Microsome. The conditions noted are these: read-out: Stability.

Sequence of PI3-kinase p110-alpha/p85-alpha (P27986 whole entry): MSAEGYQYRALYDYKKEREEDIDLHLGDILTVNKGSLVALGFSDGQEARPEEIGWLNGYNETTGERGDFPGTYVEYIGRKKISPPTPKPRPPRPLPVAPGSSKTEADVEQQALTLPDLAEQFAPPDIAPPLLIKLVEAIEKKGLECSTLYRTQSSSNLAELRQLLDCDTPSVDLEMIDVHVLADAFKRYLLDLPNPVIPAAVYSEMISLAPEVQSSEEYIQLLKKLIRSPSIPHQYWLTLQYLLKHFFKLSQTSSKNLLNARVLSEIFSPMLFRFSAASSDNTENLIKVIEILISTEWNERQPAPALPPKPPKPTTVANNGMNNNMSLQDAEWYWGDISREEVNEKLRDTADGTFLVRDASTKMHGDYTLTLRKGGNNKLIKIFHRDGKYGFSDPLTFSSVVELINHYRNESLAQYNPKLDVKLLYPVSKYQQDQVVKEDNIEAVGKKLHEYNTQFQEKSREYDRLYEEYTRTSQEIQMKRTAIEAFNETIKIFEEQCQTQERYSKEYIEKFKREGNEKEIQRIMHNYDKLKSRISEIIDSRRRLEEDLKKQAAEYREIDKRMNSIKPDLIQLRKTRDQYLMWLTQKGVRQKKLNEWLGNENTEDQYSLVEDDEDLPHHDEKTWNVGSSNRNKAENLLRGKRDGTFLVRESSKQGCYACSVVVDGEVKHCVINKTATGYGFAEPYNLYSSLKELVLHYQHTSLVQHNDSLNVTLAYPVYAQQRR
Sequence of PI3-kinase p110-alpha/p85-alpha (P42336 whole entry): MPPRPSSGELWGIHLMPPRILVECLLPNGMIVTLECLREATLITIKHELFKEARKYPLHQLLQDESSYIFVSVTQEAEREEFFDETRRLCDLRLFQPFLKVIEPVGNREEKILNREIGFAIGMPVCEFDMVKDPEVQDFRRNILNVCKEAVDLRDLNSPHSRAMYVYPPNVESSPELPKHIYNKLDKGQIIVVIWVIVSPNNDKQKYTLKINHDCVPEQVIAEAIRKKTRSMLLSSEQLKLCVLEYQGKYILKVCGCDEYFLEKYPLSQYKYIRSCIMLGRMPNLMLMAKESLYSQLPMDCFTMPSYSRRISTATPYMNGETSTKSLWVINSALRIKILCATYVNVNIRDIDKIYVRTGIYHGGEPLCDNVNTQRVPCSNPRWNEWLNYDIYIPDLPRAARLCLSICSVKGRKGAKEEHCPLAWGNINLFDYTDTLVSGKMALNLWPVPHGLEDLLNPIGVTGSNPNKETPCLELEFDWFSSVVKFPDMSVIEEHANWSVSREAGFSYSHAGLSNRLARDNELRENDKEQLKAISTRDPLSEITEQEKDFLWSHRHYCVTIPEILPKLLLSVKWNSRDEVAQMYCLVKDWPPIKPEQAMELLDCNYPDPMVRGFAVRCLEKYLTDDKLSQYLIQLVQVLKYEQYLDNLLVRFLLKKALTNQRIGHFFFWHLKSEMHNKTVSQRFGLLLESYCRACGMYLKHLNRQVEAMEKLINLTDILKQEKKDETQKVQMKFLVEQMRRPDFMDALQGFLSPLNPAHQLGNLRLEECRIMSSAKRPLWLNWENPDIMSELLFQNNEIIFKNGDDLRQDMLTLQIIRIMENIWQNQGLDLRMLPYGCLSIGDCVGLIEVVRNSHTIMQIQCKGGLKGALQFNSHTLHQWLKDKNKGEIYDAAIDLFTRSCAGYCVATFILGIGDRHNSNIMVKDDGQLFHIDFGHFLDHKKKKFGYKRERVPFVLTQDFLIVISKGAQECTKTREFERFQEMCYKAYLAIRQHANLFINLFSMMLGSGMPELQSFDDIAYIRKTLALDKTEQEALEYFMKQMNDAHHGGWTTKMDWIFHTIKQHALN
Sequence of Phosphatidylinositol 4,5-bisphosphate 3-kinase catalytic subunit alpha isoform (P42336 whole entry, canonical isoform): as the sequence (P42336 whole entry) above
Sequence of Phosphatidylinositol 4,5-bisphosphate 3-kinase catalytic subunit gamma isoform (P48736 whole entry, canonical isoform): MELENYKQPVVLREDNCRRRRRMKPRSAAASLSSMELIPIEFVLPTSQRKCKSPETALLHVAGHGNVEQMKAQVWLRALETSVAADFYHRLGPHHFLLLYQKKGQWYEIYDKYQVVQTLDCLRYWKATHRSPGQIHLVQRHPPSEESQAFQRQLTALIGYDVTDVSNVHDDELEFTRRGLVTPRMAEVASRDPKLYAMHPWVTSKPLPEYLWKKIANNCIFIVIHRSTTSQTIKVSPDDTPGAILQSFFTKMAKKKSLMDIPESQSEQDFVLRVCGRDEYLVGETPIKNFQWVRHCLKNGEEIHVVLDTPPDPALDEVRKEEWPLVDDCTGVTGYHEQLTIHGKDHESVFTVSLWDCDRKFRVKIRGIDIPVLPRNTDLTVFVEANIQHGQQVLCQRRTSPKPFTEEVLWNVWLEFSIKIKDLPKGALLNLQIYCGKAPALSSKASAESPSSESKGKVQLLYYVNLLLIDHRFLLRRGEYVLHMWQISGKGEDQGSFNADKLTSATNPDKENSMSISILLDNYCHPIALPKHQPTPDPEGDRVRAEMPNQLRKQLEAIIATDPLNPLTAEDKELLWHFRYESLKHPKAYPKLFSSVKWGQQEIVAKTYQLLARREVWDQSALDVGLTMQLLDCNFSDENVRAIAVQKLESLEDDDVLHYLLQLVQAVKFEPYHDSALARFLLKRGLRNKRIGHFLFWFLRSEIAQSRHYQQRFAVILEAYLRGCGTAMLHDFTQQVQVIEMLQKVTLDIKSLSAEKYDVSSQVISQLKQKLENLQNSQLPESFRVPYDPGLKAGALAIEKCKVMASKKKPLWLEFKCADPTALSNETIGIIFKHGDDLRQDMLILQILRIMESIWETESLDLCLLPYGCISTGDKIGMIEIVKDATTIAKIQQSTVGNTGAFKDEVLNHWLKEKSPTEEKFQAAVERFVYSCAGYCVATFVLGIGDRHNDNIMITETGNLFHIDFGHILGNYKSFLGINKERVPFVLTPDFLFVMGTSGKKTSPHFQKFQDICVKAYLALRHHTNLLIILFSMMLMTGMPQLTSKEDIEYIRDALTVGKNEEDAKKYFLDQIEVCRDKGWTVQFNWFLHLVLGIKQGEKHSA
Sequence of CYP2C19 (P33261 whole entry): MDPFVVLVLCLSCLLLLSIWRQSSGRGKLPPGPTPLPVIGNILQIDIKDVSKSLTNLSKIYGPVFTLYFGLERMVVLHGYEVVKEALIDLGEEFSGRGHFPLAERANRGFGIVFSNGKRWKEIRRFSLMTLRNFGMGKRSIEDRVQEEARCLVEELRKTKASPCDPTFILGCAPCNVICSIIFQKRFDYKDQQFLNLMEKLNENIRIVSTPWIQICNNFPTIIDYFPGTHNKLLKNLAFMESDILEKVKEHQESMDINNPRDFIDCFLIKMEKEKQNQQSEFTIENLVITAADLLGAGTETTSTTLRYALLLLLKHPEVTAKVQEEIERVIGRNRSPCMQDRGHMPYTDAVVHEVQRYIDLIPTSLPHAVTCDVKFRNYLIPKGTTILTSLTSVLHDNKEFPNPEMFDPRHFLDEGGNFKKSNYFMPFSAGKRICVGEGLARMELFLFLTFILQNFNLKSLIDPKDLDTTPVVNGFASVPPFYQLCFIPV
Sequence of CYP2C9 (P11712 whole entry): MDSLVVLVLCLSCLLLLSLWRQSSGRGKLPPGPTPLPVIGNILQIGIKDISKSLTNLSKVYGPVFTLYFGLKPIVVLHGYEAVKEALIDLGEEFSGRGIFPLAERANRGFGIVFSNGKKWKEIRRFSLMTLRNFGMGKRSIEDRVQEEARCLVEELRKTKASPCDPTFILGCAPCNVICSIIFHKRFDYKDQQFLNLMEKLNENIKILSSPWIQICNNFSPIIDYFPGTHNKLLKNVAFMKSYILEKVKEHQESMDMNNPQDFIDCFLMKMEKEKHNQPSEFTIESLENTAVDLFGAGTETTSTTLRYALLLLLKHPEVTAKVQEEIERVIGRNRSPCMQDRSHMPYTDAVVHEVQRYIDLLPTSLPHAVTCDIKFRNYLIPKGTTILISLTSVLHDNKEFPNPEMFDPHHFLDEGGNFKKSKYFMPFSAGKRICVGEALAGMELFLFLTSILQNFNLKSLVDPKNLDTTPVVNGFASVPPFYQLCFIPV
Sequence of PI3K p110 beta/p85 alpha (P27986 whole entry): as the sequence (P27986 whole entry) above
Sequence of PI3K p110 beta/p85 alpha (P42338 whole entry): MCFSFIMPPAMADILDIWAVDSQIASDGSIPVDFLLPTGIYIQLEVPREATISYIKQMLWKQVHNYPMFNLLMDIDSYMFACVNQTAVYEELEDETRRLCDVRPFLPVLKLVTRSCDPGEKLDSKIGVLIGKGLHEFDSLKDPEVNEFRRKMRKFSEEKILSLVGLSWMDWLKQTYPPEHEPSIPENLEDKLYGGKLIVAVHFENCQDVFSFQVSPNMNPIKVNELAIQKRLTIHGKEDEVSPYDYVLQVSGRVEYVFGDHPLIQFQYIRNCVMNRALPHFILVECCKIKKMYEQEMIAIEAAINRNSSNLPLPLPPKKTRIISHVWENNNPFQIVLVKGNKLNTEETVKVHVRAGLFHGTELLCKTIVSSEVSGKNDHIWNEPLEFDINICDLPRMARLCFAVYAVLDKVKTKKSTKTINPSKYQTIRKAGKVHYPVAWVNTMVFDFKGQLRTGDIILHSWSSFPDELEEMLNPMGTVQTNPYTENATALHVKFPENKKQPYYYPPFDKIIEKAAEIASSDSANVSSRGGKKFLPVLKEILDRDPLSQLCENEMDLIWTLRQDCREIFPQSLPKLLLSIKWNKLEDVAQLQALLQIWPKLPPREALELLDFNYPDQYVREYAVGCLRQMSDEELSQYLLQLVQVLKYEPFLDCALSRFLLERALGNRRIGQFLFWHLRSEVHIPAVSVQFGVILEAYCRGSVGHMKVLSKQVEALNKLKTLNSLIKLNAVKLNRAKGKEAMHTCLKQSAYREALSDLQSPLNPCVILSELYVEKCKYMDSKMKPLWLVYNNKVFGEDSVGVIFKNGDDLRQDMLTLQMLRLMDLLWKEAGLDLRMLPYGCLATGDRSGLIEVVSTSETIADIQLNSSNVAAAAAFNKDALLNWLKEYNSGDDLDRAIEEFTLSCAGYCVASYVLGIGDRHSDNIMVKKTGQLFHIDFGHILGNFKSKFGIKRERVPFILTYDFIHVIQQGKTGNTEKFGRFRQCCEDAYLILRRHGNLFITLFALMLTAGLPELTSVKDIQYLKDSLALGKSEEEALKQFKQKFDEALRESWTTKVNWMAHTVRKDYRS

A word on the IC50: it is the concentration that inhibits the measured activity by half. `Cc1ncc(-c2nc(N3CCOCC3)c3nc(CN4CCN(S(C)(=O)=O)CC4)cn3c2Cl)cn1` registered an IC50 in series [1] of 21.6 nM.

Turning to `COc1ncc(-c2cn3cc(CN4CCN(S(C)(=O)=O)CC4)nc3c(N3CCOCC3)n2)cn1`, the IC50 in series [1] was determined as 160 nM.

In series [1], `CS(=O)(=O)N1CCN(Cc2cn3cc(-c4ccc5[nH]ncc5c4)nc(N4CCOCC4)c3n2)CC1` showed an IC50 of more than 10000 nM.

For the molecule `CS(=O)(=O)N1CCN(Cc2cn3c(Cl)c(-c4cnc5[nH]ccc5c4)nc(N4CCOCC4)c3n2)CC1`, in [1], the IC50 worked out at 166 nM.

Consider `COc1cncc(-c2cn3cc(CN4CCN(S(C)(=O)=O)CC4)nc3c(N3CCOCC3)n2)c1`, for which the IC50 in series [1] came to 1110 nM.

Molecule `CS(=O)(=O)C1CCN(Cc2cn3cc(-c4cnc(N)nc4)nc(N4CCOCC4)c3n2)CC1` came in with an IC50 in series [1] of 28.7 nM.

Molecule `C[C@H](O)C(=O)N1CCN(Cc2cn3cc(-c4cnc(N)nc4)nc(N4CCOCC4)c3n2)CC1` yielded an IC50 in series [1] of 34.6 nM.

As a reminder, the inhibition is the drop in the measured response relative to a control, in per cent. A low value points to a weak effect. With `CS(=O)(=O)N1CCN(Cc2cn3cc(-c4cnc(N)nc4C(F)(F)F)nc(N4CCOCC4)c3n2)CC1`, the remaining at 0.25 h, 1 µM is 82% in series [2] and 96% in series [6]. Further, the Ki on PI3K p110 beta/p85 alpha was determined as 79.8 nM; in [3] it was 5.06 nM; in series [1] it was 7.4 nM; in series [5], 26.7 nM. In addition, the inhibition at 10 µM on CYP2C9, on CYP2C19, against CYP3A4, on CYP1A2 and on CYP2D6 was less than 30% in each case. Moreover, the results for the IC50 in series [1] and in [4] were 6.8 nM and 10.2 nM, respectively.

In the case of `CNc1ncc(-c2nc(N3CCOCC3)c3nc(CN4CCN(S(C)(=O)=O)CC4)cn3c2Cl)cn1`, the IC50 in series [1] turned out to be 11.4 nM.

For `C[C@H]1CN(Cc2cn3cc(-c4cnc(N)nc4)nc(N4CCOCC4)c3n2)CCN1S(C)(=O)=O`, the Ki was found to be 319 nM on PI3K p110 beta/p85 alpha, 14.7 nM in series [3], 6.2 nM in series [1] and 124 nM in [5]. The IC50 in [1] came out at 5.5 nM; in series [4] it was 120 nM.

For the molecule `CS(=O)(=O)N1CCN(Cc2cn3cc(-c4cnc(N)c(C#N)c4)nc(N4CCOCC4)c3n2)CC1`, it took 1010 nM to reach half-maximal inhibition in series [1] (IC50).

Molecule `CS(=O)(=O)N1CCN(Cc2cn3cc(-c4cccc5[nH]ccc45)nc(N4CCOCC4)c3n2)CC1` registered an IC50 in [1] of 2500 nM.

As for `CNc1ncc(-c2cn3cc(CN4CCN(S(C)(=O)=O)CC4)nc3c(N3CCOCC3)n2)cn1`, the midpoint of inhibition in series [1], the IC50, lay at 16.4 nM.

The molecule `CS(=O)(=O)N1C2CCC1CN(Cc1cn3cc(-c4cnc(N)nc4)nc(N4CCOCC4)c3n1)C2` came in with an IC50 in series [1] of 108 nM.

In series [1], `C[C@@H]1CN(Cc2cn3cc(-c4cnc(N)nc4)nc(N4CCOCC4)c3n2)CCN1S(C)(=O)=O` registered an IC50 of 2.6 nM.

Consider `C[C@@H]1CN(S(C)(=O)=O)C[C@H](C)N1Cc1cn2cc(-c3cnc(N)nc3)nc(N3CCOCC3)c2n1`, for which the results for the IC50 in series [1] and in series [4] were 3.2 nM and 244 nM, respectively.

`CS(=O)(=O)N1CC2CN(Cc3cn4cc(-c5cnc(N)nc5)nc(N5CCOCC5)c4n3)CC2C1` (centres undefined) gave an IC50 in series [1] of 117 nM.

`CCS(=O)(=O)N1CCN(Cc2cn3cc(-c4cnc(N)nc4)nc(N4CCOCC4)c3n2)CC1`: the remaining at 0.25 h, 1 µM was 98% in series [2] and 64% in series [6]. Further, the inhibition at 10 µM against CYP2C9, against CYP2C19, against CYP3A4, against CYP1A2 and on CYP2D6 was less than 30% each time. Also, the IC50 in series [1] turned out to be 13.3 nM; in [4], 98.5 nM.

Regarding `Cc1nc(N)ncc1-c1nc(N2CCOCC2)c2nc(CN3CCN(S(C)(=O)=O)CC3)cn2c1Cl`, the IC50 in [1] is 13 nM.

Take `CS(=O)(=O)N1CCN(Cc2cn3cc(-c4cncnc4)nc(N4CCOCC4)c3n2)CC1`: in [1], the IC50 amounted to 123 nM.

For `CS(=O)(=O)N1CCN(Cc2cn3cc(-c4ccc5[nH]ccc5c4)nc(N4CCOCC4)c3n2)CC1`, the IC50 in series [1] was more than 10000 nM.

For `CN(C)CC(=O)N1CCN(Cc2cn3cc(-c4cnc(N)nc4)nc(N4CCOCC4)c3n2)CC1`, the IC50 in series [4] was 480 nM.

For `CS(=O)(=O)N1CCN(Cc2cn3c(Cl)c(-c4cnc(N)nc4C(F)(F)F)nc(N4CCOCC4)c3n2)CC1`, the IC50 in series [1] came to 6.8 nM.
